Laboratory results from publication PMC4882222 (Journal of medicinal chemistry, 2016).
Like-named read-outs stand apart in the source and are kept apart here.

Legend:
[1] = biological target: HIV RT-associated RNase H (Human immunodeficiency virus type 1 group M subtype B, UniProt P04585); type: biochemical, HIV-1
[2] = biological target: HIV RT polymerase (Human immunodeficiency virus type 1 group M subtype B, UniProt P04585); assay: RT polymerase assay; type: biochemical, HIV-1
[3] = biological target: HIV integrase (Human immunodeficiency virus type 1 group M subtype B, UniProt P04585); assay: HIV IN strand transfer assay; type: biochemical
[4] = RNH IC50 HTS-2, HTS-2 substrate, measures DNA 3' end directed cleavage
[5] = RNH IC50 HTS-3, HTS-3 substrate, measures RNA 5' end directed cleavage
[6] = RT RNase H IC50, Table 4, data with HTS-1 as substrate

| Compound | IC50 [1, 4] [µM] | IC50 [1, 5] [µM] | IC50 [1, 6] [µM] | IC50 [2] [µM] | RT Pol IC50 ([2]; Table 1, poly(rA)-oligo(dT)16, [3H]-TTP) | IC50 ([2]; read-out: RT Pol IC50, Table 4) [µM] | IC50 [3] [µM] |
| --- | --- | --- | --- | --- | --- | --- | --- |
| O=C(O)c1c[nH]cc(O)c1=O [10a, 5-Hydroxy-4-oxo-1,4-dihydropyridine-3-carboxylic acid] | > 25 | > 25 | > 25 | > 25 | no inhibitory activity | > 25 | > 100 |
| O=C(O)c1cn(-c2ccccc2)cc(O)c1=O [10b, 5-Hydroxy-4-oxo-1-phenyl-1,4-dihydropyridine-3-carboxylic acid] | > 25 | > 25 | > 25 | > 25 | – | > 25 | – |
| O=C(O)c1cn(Cc2ccccc2)cc(O)c1=O [10c, 1-Benzyl-5-hydroxy-4-oxo-1,4-dihydropyridine-3-carboxylic acid] | > 25 | > 25 | > 25 | > 25 | – | > 25 | – |
| O=C(O)c1cn(Cc2ccc(F)cc2)cc(O)c1=O [10d, 1-(4-Fluorobenzyl)-5-hydroxy-4-oxo-1,4-dihydropyridine-3-carboxylic acid] | > 25 | > 25 | – | > 25 | – | > 25 | – |
| CC(c1ccc(F)cc1)n1cc(O)c(=O)c(C(=O)O)c1 (centres unmarked) [10e, 1-(1-(4-Fluorophenyl)ethyl)-5-hydroxy-4-oxo-1,4-dihydropyridine-3-carboxylic acid] | > 25 | > 25 | – | > 25 | – | > 25 | – |
| Cc1cc(Cn2cc(O)c(=O)c(C(=O)O)c2)ccc1F [10f, 1-(4-Fluoro-3-methylbenzyl)-5-hydroxy-4-oxo-1,4-dihydropyridine-3-carboxylic acid] | > 25 | > 25 | – | > 25 | – | > 25 | > 100 |
| O=C(O)c1cn(Cc2ccc(F)cc2F)cc(O)c1=O [10g, 1-(2,4-Difluorobenzyl)-5-hydroxy-4-oxo-1,4-dihydropyridine-3-carboxylic acid] | > 25 | > 25 | – | > 25 | – | > 25 | > 100 |
| O=C(O)c1cn(Cc2ccc(Cl)c(Cl)c2)cc(O)c1=O [10i, 1-(3,4-Dichlorobenzyl)-5-hydroxy-4-oxo-1,4-dihydropyridine-3-carboxylic acid] | > 25 | > 25 | – | > 25 | – | > 25 | – |
| O=C(O)c1cn(Cc2ccc(Cl)cc2Cl)cc(O)c1=O [10j, 1-(2,4-Dichlorobenzyl)-5-hydroxy-4-oxo-1,4-dihydropyridine-3-carboxylic acid] | > 25 | > 25 | – | > 25 | – | > 25 | – |
| O=C(O)c1cn(Cc2ccc(F)c(Cl)c2)cc(O)c1=O [10k, 1-(3-Chloro-4-fluorobenzyl)-5-hydroxy-4-oxo-1,4-dihydropyridine-3-carboxylic acid] | > 25 | > 25 | – | > 25 | – | > 25 | – |
| O=C(O)c1cn(Cc2ccc(Br)cc2)cc(O)c1=O [10l, 1-(4-Bromobenzyl)-5-hydroxy-4-oxo-1,4-dihydropyridine-3-carboxylic acid] | > 25 | > 25 | > 25 | > 25 | – | > 25 | > 100 |
| O=C(O)c1cn(Cc2ccncc2)cc(O)c1=O [10n, 5-Hydroxy-4-oxo-1-(pyridin-4-ylmethyl)-1,4-dihydropyridine-3-carboxylic acid] | > 25 | > 25 | > 25 | > 25 | – | > 25 | > 100 |
| CS(=O)(=O)c1ccc(Cn2cc(O)c(=O)c(C(=O)O)c2)cc1 [10o, 5-Hydroxy-1-(4-(methylsulfonyl)benzyl)-4-oxo-1,4-dihydropyridine-3-carboxylic acid] | > 25 | > 25 | > 25 | > 25 | – | > 25 | – |
| O=C(O)c1ccc(Cn2cc(O)c(=O)c(C(=O)O)c2)cc1 [10p, 1-(4-Carboxybenzyl)-5-hydroxy-4-oxo-1,4-dihydropyridine-3-carboxylic acid] | > 25 | > 25 | > 25 | > 25 | – | > 25 | – |
| NS(=O)(=O)c1ccc(-c2ccc(Cn3cc(O)c(=O)c(C(=O)O)c3)cc2)cc1 [10y, 5-Hydroxy-4-oxo-1-((4'-sulfamoyl-[1,1'-biphenyl]-4-yl)methyl)-1,4-dihydropyridine-3-carboxylic acid] | – | – | – | – | – | – | > 100 |
| CCOC(=O)c1cn(Cc2ccc(F)cc2)cc(O)c1=O [compound 18, Ethyl-1-(4-fluorobenzyl)-5-hydroxy-4-oxo-1,4-dihydropyridine-3-carboxylate] | > 25 | > 25 | > 25 | > 25 | – | > 25 | > 100 |
| NC(=O)c1cn(Cc2ccc(F)cc2)cc(O)c1=O [compound 20, 1-(4-Fluorobenzyl)-5-hydroxy-4-oxo-1,4-dihydropyridine-3-carboxamide] | > 25 | > 25 | – | > 25 | – | > 25 | – |
